Test results taken from ChEMBL document CHEMBL5226321, “Ivermectin: A Promising Therapeutic for Fighting Malaria. Current Status and Perspective” (J Med Chem, 2021).
“And” between values parts separate entries of the source, which are not always exact repeats. Identical values can stand only once.

Columns and labels:
Culex pipiens = test: Insecticidal in Culex pipiens larvae measured after 48 hrs; assay type: functional
Anopheles stephensi [1] = test: Insecticidal in Anopheles stephensi larvae measured after 48 hrs; assay type: functional
Aedes aegypti [2] = test: Insecticidal in Aedes aegypti assessed as mortality rate fed with blood of compound treated mouse at 83 mg/kg, sc before 12 hrs and observed after 36 hrs relative to control; assay type: functional, organism-based
Culex quinquefasciatus [3] = test: Insecticidal in Culex quinquefasciatus assessed as mortality rate fed with blood of compound treated mouse at […], sc before 12 hrs and observed after 36 hrs relative to control; assay type: functional, organism-based
Aedes aegypti [4] = test: Insecticidal in Aedes aegypti assessed as lethal concentration membrane-fed with compound treated blood; assay type: functional, organism-based
Aedes albopictus = test: Insecticidal in Aedes albopictus assessed as mortality rate membrane-fed with compound treated human blood at 10 to 100 microg/mL observed within 7 days relative to control; assay type: functional, organism-based; details: dose 10-100 µg/ml, time 7.0 day
Culex quinquefasciatus [5] = test: Insecticidal in Culex quinquefasciatus assessed as mortality rate membrane-fed with compound treated human blood at 10 to 100 microg/mL observed within 7 days relative to control; assay type: functional, organism-based; details: dose 10-100 µg/ml, time 7.0 day
Anopheles sp. [6] = test: Insecticidal in Anopheles sp. assessed as percentage survival fed with blood of compound treated human at 250 microg/kg administered once and observed for 3 days relative to control; assay type: functional, organism-based; details: dose 250.0 µg/kg, time 3.0 day
Anopheles gambiae [7] = test: Insecticidal in Anopheles gambiae assessed as mean survival fed with blood of compound treated human at 200 microg/kg relative to control; assay type: functional, organism-based; details: dose 200.0 µg/kg
Anopheles gambiae [8] = test: Insecticidal in Anopheles gambiae assessed as mortality fed with compound treated bovine blood at 600 microg/kg observed for 10 days; assay type: functional, organism-based; details: dose 600.0 µg/kg, time 10.0 day
Anopheles sp. [9] = test: Insecticidal in Anopheles sp. assessed as mortality fed with compound treated human blood at 400 microg/kg in the presence of 6 mg/kg diethylcarbamazine citrate observed in 24 hrs relative to control; assay type: functional, organism-based; details: dose 400.0 µg/kg
Anopheles arabiensis [10] = test: Insecticidal in Anopheles arabiensis assessed as lethal concentration membrane-fed with compound treated bovine blood; assay type: functional
Plasmodium vivax [11] = test: Antimalarial activity against Plasmodium vivax assessed as sporogony lethality in Anopheles darlingi mosquito fed with blood isolated from compound treated parasite-infected human observed after 7 days by measuring reduction in parasite prevalence level at Lc50 relative to control; assay type: functional, organism-based; parameters: scale not given: the % may be the effect or the level left; details: time 7.0 day
Plasmodium vivax [12] = test: Antimalarial activity against Plasmodium vivax assessed as reduction in […] in Anopheles sp. mosquito fed with blood containing plasma isolated from compound treated human observed after 4 days relative to control; assay type: functional, organism-based; details: time 4.0 day, dose or concentration not given here
Anopheles sp. [13] = test: Insecticidal in Anopheles sp. infected with Plasmodium vivax assessed as mortality rate midgut fed with blood isolated from compound treated parasite-infected human observed after 7 days relative to control; assay type: functional, organism-based; details: time 7.0 day
Anopheles darlingi = test: Insecticidal in Anopheles darlingi infected with Plasmodium vivax assessed as mortality rate midgut fed with blood isolated from compound treated parasite-infected human observed after 7 days relative to control; assay type: functional, organism-based; details: time 7.0 day
Anopheles stephensi [14] = test: Insecticidal in Anopheles stephensi assessed as mortality rate with blood of compound treated mouse at 82 microg/kg observed within 36 hrs relative to control; assay type: functional, organism-based; details: dose 82.0 µg/kg
Anopheles sp. [15] = test: Insecticidal in Anopheles sp. assessed as mortality rate fed with blood of compound treated human at 200 microg/kg administered once caught on day 3 after mass drug administration observed within 5 days relative to control; assay type: functional, organism-based; details: dose 200.0 µg/kg, time 5.0 day
Anopheles minimus [16] = test: In vitro Insecticidal in Anopheles minimus assessed as lethality membrane-fed with compound treated human blood at 400 microg/kg per day in presence of combination of 120 mg dihydroartemisinin, 960 mg piperaquine and 30 mg primaquine observed after 7 days; assay type: functional, organism-based; details: dose 400.0 µg/kg, time 7.0 day
Anopheles minimus [17] = test: Insecticidal in Anopheles minimus assessed as lethal concentration membrane-fed with compound treated human blood at 200 microg/kg observed for 7 days; assay type: functional, organism-based; details: dose 200.0 µg/kg, time 7.0 day
Anopheles sp. [18] = test: Insecticidal in Anopheles sp. infected with Plasmodium falciparum gametocytes assessed as mortality fed with compound treated bovine blood at 200 microg/kg observed within 2.87 days feeding at 2 days post treatment relative to control; assay type: functional, organism-based; details: dose 200.0 µg/kg, time 2.87 day
Anopheles sp. [19] = test: Insecticidal in Anopheles sp. infected with Plasmodium falciparum gametocytes assessed as mortality fed with compound treated bovine blood at 200 microg/kg observed within 4 days feeding at 7 days post treatment relative to control; assay type: functional, organism-based; details: dose 200.0 µg/kg, time 4.0 day
Anopheles sp. [20] = test: Insecticidal in Anopheles sp. assessed as mortality fed with compound treated pig blood at 600 microg/kg observed within 2 to 4 days feeding upto 8 days after drug administration relative to control; assay type: functional, organism-based; details: dose 600.0 µg/kg, time 2-4 day
Anopheles arabiensis [21] = test: Insecticidal in Anopheles arabiensis assessed as percentage of mortality in 10 day survivorship fed with compound treated bovine blood at 73 mg observed for 24 weeks relative to control; assay type: functional, organism-based
Anopheles sp. [22] = test: Insecticidal in Anopheles sp. infected with Plasmodium falciparum gametocytes assessed as reduction in survival fed with compound treated bovine blood at 200 microg/kg feeding at 7 days after injection relative to control; assay type: functional, organism-based; details: dose 200.0 µg/kg
Anopheles sp. [23] = test: Insecticidal in Anopheles sp. infected with Plasmodium falciparum gametocytes assessed as reduction in fecundity fed with compound treated bovine blood at 200 microg/kg feeding at 28 days after injection relative to control; assay type: functional, organism-based; parameters: scale not given: the % may be the effect or the level left; details: dose 200.0 µg/kg
Anopheles sp. [24] = test: Insecticidal in Anopheles sp. assessed as mean plasma concentration causing death within 2-4 days fed with compound treated pig blood administered as a single dose at 600 microg/kg at 1 day post treatment observed within 2 to 4 days; assay type: functional, organism-based; details: dose 600.0 µg/kg, time 2-4 day, pooled result: one value given for 4 cell lines, strains, targets or settings
Anopheles sp. [25] = test: Insecticidal in Anopheles sp. assessed as number of eggs per female fed with compound treated human blood administered as a single dose at 10 microg/ml fed at 4 hrs post treatment; assay type: functional, organism-based; details: dose 10.0 µg/ml
Anopheles arabiensis [26] = test: Insecticidal in Anopheles arabiensis assessed as reduction in number of eggs fed with compound treated bovine blood at 200 microg/kg relative to control; assay type: functional, organism-based; parameters: scale not given: the % may be the effect or the level left; details: dose 200.0 µg/kg
Anopheles arabiensis [27] = test: Insecticidal in Anopheles arabiensis assessed as mortality observed within 48 hrs after ingestion relative to control; assay type: functional, organism-based
Anopheles sp. [28] = test: Insecticidal in Anopheles sp. assessed as mortality relative to control; assay type: functional, organism-based
Anopheles gambiae [29] = test: Insecticidal in Anopheles gambiae assessed as lethal concentration membrane-fed with compound treated human blood at 200 microg/kg observed after 48 to 72 hrs; assay type: functional, organism-based; details: dose 200.0 µg/kg, time 48-72 hrs
Anopheles gambiae [30] = test: Insecticidal in Anopheles gambiae assessed as mortality fed with compound treated bovine blood at 6 ng/mL observed for 10 days relative to control; assay type: functional, organism-based; details: time 10.0 day
Anopheles arabiensis [31] = test: Insecticidal in Anopheles arabiensis assessed as reduction in survival rate fed with blood of compound treated human observed for […] relative to control; assay type: functional, organism-based
Plasmodium berghei [32] = test: In vivo antimalarial activity against blood stage Plasmodium berghei transfected with GFP infected in mouse assessed as increase in mouse survival days at 0.5 mg/kg for 3 days; assay type: functional, organism-based; details: time 3.0 day
Plasmodium berghei [33] = test: In vivo antimalarial activity against liver stage Plasmodium berghei infected in mouse assessed as inhibition of liver infection at 10 mg/kg measured 44 to 46 hrs post-infection by bioluminescence assay relative to control; assay type: functional, organism-based; details: time 44-46 hrs
Plasmodium berghei [34] = test: In vivo antimalarial activity against liver stage Plasmodium berghei infected in mouse assessed as increase in mouse survival days at 10 mg/kg; assay type: functional, organism-based

IVERMECTIN
LC50 (Culex pipiens): 3.94 ppb
LC50 (Anopheles stephensi [1]): 5.85 ppb
mortality (Aedes aegypti [2]): 60%
mortality (Culex quinquefasciatus [3]): 50%
MLC (Aedes aegypti [4]): 2.5 ppm
mortality (Aedes albopictus): 100%
mortality (Culex quinquefasciatus [5]): 100%
Survival (Anopheles sp. [6]): 20%
Survival (Anopheles gambiae [7]): 2.3 days
mortality (Anopheles gambiae [8]): 90%
mortality (Anopheles sp. [9]): 70%
LC50 (Anopheles arabiensis [10]): 7.79 ppb
Activity (Plasmodium vivax [11]): 22.6% and 17.1%
inhibition (Plasmodium vivax [12]): 99.9%
mortality (Anopheles sp. [13]): 97.1%
mortality (Anopheles darlingi): 97.1%
mortality (Anopheles stephensi [14]): 100%
mortality (Anopheles sp. [15]): 68%
LC50 (Anopheles minimus [16]): 0.0147 µg/mL
LC50 (Anopheles minimus [17]): 0.0264 µg/mL
mortality (Anopheles sp. [18]): 100%
mortality (Anopheles sp. [19]): 100%
mortality (Anopheles sp. [20]): 100%
mortality (Anopheles arabiensis [21]): 90%
Survival (Anopheles sp. [22]): 83%
Activity (Anopheles sp. [23]): 20%
Cp (Anopheles sp. [24]): 15.3 ng/mL
Activity (Anopheles sp. [25]): 22.4
Activity (Anopheles arabiensis [26]): 82%
mortality (Anopheles arabiensis [27]): 95%
mortality (Anopheles sp. [28]): 90%
LC50 (Anopheles gambiae [29]): 0.01 µg/mL and 0.007 µg/mL
mortality (Anopheles gambiae [30]): 50%
Survival (Anopheles arabiensis [31]): 50%
Survival (Plasmodium berghei [32]): 23 days
inhibition (Plasmodium berghei [33]): 80%
Survival (Plasmodium berghei [34]): 10 days
